Laboratory results taken from PMC9668280, “3H-1,2-Benzoxaphosphepine 2-oxides as selective inhibitors of carbonic anhydrase IX and XII” (Journal of Enzyme Inhibition and Medicinal Chemistry, 2022).
Read-outs that look alike come from different tables or passages of the source.

What was measured:
Assay in all cases: stopped-flow CO2 hydration assay
Type in all cases: biochemical
[1] = molecular target: T1, hCA XII (Homo sapiens, UniProt O43570); settings: read-out: KI (μM)^a,b / hCA XII
T1 construct: gene CA12; recombinant, obtained in-house
Description: stopped-flow CO2 hydration assay on hCA XII

[2] = molecular target: T2, hCA I (Homo sapiens, UniProt P00915); settings: read-out: KI (μM)^a,b / hCA I
T2 construct: gene CA1; recombinant, obtained in-house
Description: stopped-flow CO2 hydration assay on hCA I

[3] = molecular target: T3, hCA IX (Homo sapiens, UniProt Q16790); settings: read-out: KI (μM)^a,b / hCA IX
T3 construct: gene CA9; recombinant, obtained in-house
Description: stopped-flow CO2 hydration assay on hCA IX

[4] = molecular target: T4, hCA II (Homo sapiens, UniProt P00918); settings: CO2 1.7-17 mM, 20 mM HEPES pH 7.4, 20 mM NaClO4, 6 h preincubation at room temperature; read-out: KI (μM)^a,b / hCA I
T4 construct: gene CA2; recombinant, obtained in-house
Description: stopped-flow CO2 hydration assay on hCA II

[5] = molecular target: T4, hCA II; settings: CO2 […], […] HEPES pH […] NaClO4, […] h preincubation at room temperature; read-out: KI (μM)^a,b / hCA I
[6] = CO2 1.7-17 mM, 20 mM HEPES pH 7.4, 20 mM NaClO4, 6 h preincubation at room temperature
[7] = CO2 […], […] HEPES pH […] NaClO4, […] h preincubation at room temperature

T1 sequence (O43570 25-354 limits assumed): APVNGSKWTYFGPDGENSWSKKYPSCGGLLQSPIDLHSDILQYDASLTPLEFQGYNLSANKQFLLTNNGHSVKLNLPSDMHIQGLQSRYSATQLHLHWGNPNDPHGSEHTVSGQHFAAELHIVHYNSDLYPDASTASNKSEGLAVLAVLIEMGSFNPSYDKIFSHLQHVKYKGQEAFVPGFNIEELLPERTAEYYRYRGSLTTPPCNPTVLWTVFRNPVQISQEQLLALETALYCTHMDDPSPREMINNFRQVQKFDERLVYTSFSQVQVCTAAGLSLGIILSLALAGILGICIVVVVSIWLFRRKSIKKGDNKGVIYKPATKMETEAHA
T2 sequence (P00915 2-261): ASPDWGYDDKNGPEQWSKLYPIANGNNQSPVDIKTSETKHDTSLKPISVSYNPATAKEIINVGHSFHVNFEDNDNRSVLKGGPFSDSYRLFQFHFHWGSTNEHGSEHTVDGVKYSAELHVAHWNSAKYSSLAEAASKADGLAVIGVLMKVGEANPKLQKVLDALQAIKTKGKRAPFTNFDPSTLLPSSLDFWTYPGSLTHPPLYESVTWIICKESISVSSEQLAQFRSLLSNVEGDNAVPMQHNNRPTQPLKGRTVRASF

Row | Compound | Ki [1, 6] [µM] | Ki [2, 6] [µM] | Ki [3, 6] [µM] | Ki [4] [µM] | Ki [2, 7] [µM] | Ki [5] [µM] | Ki [3, 7] [µM] | Ki [1, 7] [µM]
1 | 2-Hydroxy-3H-benzo[f][1,2]oxaphosphepine 2-oxide [7a] | 0.51 | > 100 | 1.3 | > 100 | – | – | – | –
2 | CCOP1(=O)CC=Cc2ccccc2O1 (stereo not shown) [6a, 2-Ethoxy-3H-benzo[f][1,2]oxaphosphepine 2-oxide] | – | – | – | – | > 100 | > 100 | 0.82 | –
3 | CCOP1(=O)CC=Cc2cc(I)ccc2O1 (stereo not shown) [6b, 2-Ethoxy-7-iodo-3H-benzo[f][1,2]oxaphosphepine 2-oxide] | – | – | – | – | > 100 | > 100 | 4.7 | 2.4
4 | CCOP1(=O)CC=Cc2cc(Br)ccc2O1 (stereo not shown) [6c, 7-Bromo-2-ethoxy-3H-benzo[f][1,2]oxaphosphepine 2-oxide] | – | – | – | – | > 100 | > 100 | 0.76 | 1.6
5 | CCOP1(=O)CC=Cc2cccc(Br)c2O1 (stereo not shown) [6d, 9-Bromo-2-ethoxy-3H-benzo[f][1,2]oxaphosphepine 2-oxide] | – | – | – | – | > 100 | > 100 | 11.3 | 3.3
6 | CCOP1(=O)CC=Cc2cccc(OC)c2O1 (stereo not shown) [6e, 2-Ethoxy-9-methoxy-3H-benzo[f][1,2]oxaphosphepine 2-oxide] | – | – | – | – | > 100 | > 100 | 9 | 7.4
7 | CCOP1(=O)CC=Cc2cc(Cl)cc(Cl)c2O1 (stereo not shown) [6f, 7,9-Dichloro-2-ethoxy-3H-benzo[f][1,2]oxaphosphepine 2-oxide] | – | – | – | – | > 100 | > 100 | 6.1 | 3.4
8 | CCOP1(=O)CC=Cc2cc([N+](=O)[O-])ccc2O1 (stereo not shown) [6g, 2-Ethoxy-7-nitro-3H-benzo[f][1,2]oxaphosphepine 2-oxide] | – | – | – | – | > 100 | > 100 | 3.9 | 0.95
9 | O=P1(O)CC=Cc2cc(I)ccc2O1 [7b, 2-Hydroxy-7-iodo-3H-benzo[f][1,2]oxaphosphepine 2-oxide] | – | – | – | – | > 100 | > 100 | 0.88 | 0.68
10 | O=P1(O)CC=Cc2cc(Br)ccc2O1 [7c, 7-Bromo-2-hydroxy-3H-benzo[f][1,2]oxaphosphepine 2-oxide] | – | – | – | – | > 100 | > 100 | 1 | 0.96
11 | O=P1(O)CC=Cc2cccc(Br)c2O1 [7d, 9-Bromo-2-hydroxy-3H-benzo[f][1,2]oxaphosphepine 2-oxide] | – | – | – | – | > 100 | > 100 | 2.5 | 1.8
12 | COc1cccc2c1OP(=O)(O)CC=C2 [7e, 2-Hydroxy-9-methoxy-3H-benzo[f][1,2]oxaphosphepine 2-oxide] | – | – | – | – | > 100 | > 100 | 1.8 | 1.2
13 | O=P1(O)CC=Cc2cc(Cl)cc(Cl)c2O1 [7f, 7,9-Dichloro-2-hydroxy-3H-benzo[f][1,2]oxaphosphepine 2-oxide] | – | – | – | – | > 100 | > 100 | 0.8 | 1.7
14 | O=[N+]([O-])c1ccc2c(c1)C=CCP(=O)(O)O2 [7g, 2-Hydroxy-7-nitro-3H-benzo[f][1,2]oxaphosphepine 2-oxide] | – | – | – | – | > 100 | > 100 | 0.67 | 1
